Results: patent US20240360151A1 (SANOFI, priority 2023, published 2024)

These compounds were tested against T1, NLRP3 inflammasome (Homo sapiens, UniProt Q96P20) (assay: IL-1β secretion assay (NLRP3 IC50) in LPS-primed, nigericin-activated THP-1 cells, HTRF). Details: monocytic THP-1 cells; LPS 10 ng/mL 3 h priming, then compound + nigericin 10 μM 2 h; relative IC50, 10 concentrations, geometric mean.
T1 construct: endogenous in cells; host or cells: THP-1 monocytic cells
Type: cell-based
Method in brief: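 THP-1 cells primed with LPS 10 ng/mL for 3 h at 37° C., then compound (10-point 1:3 dilution, 0.1% DMSO) added with 10 μM nigericin for 2 h. Supernatant IL-1β measured by HTRF; relative IC50 from a 4-parameter logistic fit, reported as geometric mean.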

T1 sequence (Q96P20 whole entry): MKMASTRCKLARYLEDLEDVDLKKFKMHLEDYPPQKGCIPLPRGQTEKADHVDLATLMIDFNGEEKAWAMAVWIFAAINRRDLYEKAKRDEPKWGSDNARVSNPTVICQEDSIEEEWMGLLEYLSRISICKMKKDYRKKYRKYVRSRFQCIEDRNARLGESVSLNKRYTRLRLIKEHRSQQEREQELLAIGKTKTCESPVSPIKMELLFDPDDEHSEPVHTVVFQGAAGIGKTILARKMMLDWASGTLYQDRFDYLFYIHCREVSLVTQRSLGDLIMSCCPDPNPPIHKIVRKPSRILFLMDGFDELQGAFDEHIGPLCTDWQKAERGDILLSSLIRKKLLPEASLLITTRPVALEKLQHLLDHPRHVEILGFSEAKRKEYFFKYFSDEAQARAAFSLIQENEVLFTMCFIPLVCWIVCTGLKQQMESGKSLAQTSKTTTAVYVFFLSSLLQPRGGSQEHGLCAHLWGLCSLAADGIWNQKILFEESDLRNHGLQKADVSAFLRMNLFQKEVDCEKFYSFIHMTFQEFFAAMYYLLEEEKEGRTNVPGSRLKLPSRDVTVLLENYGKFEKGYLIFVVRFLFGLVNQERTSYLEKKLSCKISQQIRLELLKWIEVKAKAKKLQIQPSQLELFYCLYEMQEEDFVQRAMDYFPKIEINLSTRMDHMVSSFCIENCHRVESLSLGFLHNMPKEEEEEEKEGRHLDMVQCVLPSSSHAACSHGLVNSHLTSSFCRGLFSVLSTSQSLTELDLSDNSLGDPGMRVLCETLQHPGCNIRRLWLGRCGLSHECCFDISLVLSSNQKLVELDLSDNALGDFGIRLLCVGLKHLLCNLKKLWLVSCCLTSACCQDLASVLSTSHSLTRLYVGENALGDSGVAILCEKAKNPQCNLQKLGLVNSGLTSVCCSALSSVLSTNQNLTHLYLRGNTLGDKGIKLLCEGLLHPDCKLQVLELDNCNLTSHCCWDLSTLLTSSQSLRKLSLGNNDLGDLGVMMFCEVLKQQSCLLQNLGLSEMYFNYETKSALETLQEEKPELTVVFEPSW

First: O=S1(=O)CCN(c2ccc(-c3c(O)cc(Cl)cc3Cl)nn2)CC1 [Example 399, 3,5-dichloro-2-[6-(1,1-dioxo-1,4-thiazinan-4-yl)pyridazin-3-yl]phenol]
Second: CCc1cc(Cl)cc(O)c1-c1ccc(N2CCO[C@@H]3CCN(C)C[C@@H]32)nn1 [Example 461, 2-[6-[(4aS,8aR)-6-methyl-3,4a,5,7,8,8a-hexahydro-2H-pyrido[4,3-b][1,4]oxazin-4-yl]pyridazin-3-yl]-5-chloro-3-ethyl-phenol]
The IC50 of the first is 560-fold higher: 564 nM for the first, 1 nM for the second. The second is the more potent here.

First: CN1CC[C@H]2OCCN(c3ccc(-c4c(O)cccc4C(F)(F)F)nn3)[C@H]2C1 [Example 402, 2-[6-[(4aS,8aR)-6-methyl-3,4a,5,7,8,8a-hexahydro-2H-pyrido[4,3-b][1,4]oxazin-4-yl]pyridazin-3-yl]-3-(trifluoromethyl)phenol]
Second: CCc1cc(C(F)(F)F)cc(O)c1-c1ccc(N2CCO[C@@H]3CCN(C)C[C@@H]32)nn1 [Example 481, 2-[6-[(4aS,8aR)-6-methyl-3,4a,5,7,8,8a-hexahydro-2H-pyrido[4,3-b][1,4]oxazin-4-yl]pyridazin-3-yl]-3-ethyl-5-(trifluoromethyl)phenol]
The IC50 of the first is 11-fold higher: 22 nM for the first, 2 nM for the second. The second is the more potent here.

Going from `CCN1CC[C@H]2OCCN(c3ccc(-c4c(C)cc(C)cc4O)nn3)[C@H]2C1` [Example 404, 2-[6-[(4aS,8aR)-6-ethyl-3,4a,5,7,8,8a-hexahydro-2H-pyrido[4,3-b][1,4]oxazin-4-yl]pyridazin-3-yl]-3,5-dimethyl-phenol] to `CCN1CC[C@H]2OCCN(c3cc(C)c(-c4ccc(F)cc4O)nn3)[C@H]2C1` [Example 479, 2-[6-[(4aS,8aR)-6-ethyl-3,4a,5,7,8,8a-hexahydro-2H-pyrido[4,3-b][1,4]oxazin-4-yl]-4-methyl-pyridazin-3-yl]-5-fluoro-phenol], the IC50 rises from 0.75 nM to 5 nM (6.7-fold).

Compared with `CC(=O)N1CC[C@H]2OCCN(c3ccc(-c4c(C)cccc4O)nn3)[C@H]2C1` [Example 409, 1-[(4aS,8aR)-4-[6-(2-hydroxy-6-methyl-phenyl)pyridazin-3-yl]-3,4a,5,7,8,8a-hexahydro-2H-pyrido[4,3-b][1,4]oxazin-6-yl]ethanone], `CCc1cccc(O)c1-c1ccc(N2CCO[C@@H]3CCN(C(C)=O)C[C@@H]32)nn1` [Example 424, 1-[(4aS,8aR)-4-[6-(2-ethyl-6-hydroxy-phenyl)pyridazin-3-yl]-3,4a,5,7,8,8a-hexahydro-2H-pyrido[4,3-b][1,4]oxazin-6-yl]ethanone] is 1.6-fold lower in IC50: 638 nM for the first, 396 nM for the second. The second is the more potent here.

Going from `Cc1cc(C)c(-c2ccc(N3CC4CCC3CN(C)C4)nn2)c(O)c1` (stereo not shown) [Example 410, 3,5-dimethyl-2-[6-(3-methyl-3,6-diazabicyclo[3.2.2]nonan-6-yl)pyridazin-3-yl]phenol] to `Cc1cc(C(F)(F)F)cc(O)c1-c1ccc(N2CC3CCC2CN(C)C3)nn1` (stereo not shown) [Example 417, 3-methyl-2-[6-(3-methyl-3,6-diazabicyclo[3.2.2]nonan-6-yl)pyridazin-3-yl]-5-(trifluoromethyl)phenol], the IC50 falls from 2180 nM to 716 nM (3-fold). The second is the more potent here.

Compared with `Cc1cccc(O)c1-c1ccc(N2CCO[C@@H]3CCNC[C@@H]32)nn1` [Example 411, 2-[6-[(4aS,8aR)-2,3,4a,5,6,7,8,8a-octahydropyrido[4,3-b][1,4]oxazin-4-yl]pyridazin-3-yl]-3-methyl-phenol], `CCc1cccc(O)c1-c1cc(C)c(N2CCO[C@@H]3CCN(C)C[C@@H]32)nn1` [Example 439, 2-[6-[(4aS,8aR)-6-methyl-3,4a,5,7,8,8a-hexahydro-2H-pyrido[4,3-b][1,4]oxazin-4-yl]-5-methyl-pyridazin-3-yl]-3-ethyl-phenol] is 1.7-fold higher in IC50: 344 nM for the first, 569 nM for the second. The first is the more potent here.

First: Cc1cc(C)c(-c2ccc(N3CCCC34CCCN(C)C4)nn2)c(O)c1 (stereo not shown) [Example 428, 3,5-dimethyl-2-[6-(9-methyl-1,9-diazaspiro[4.5]decan-1-yl)pyridazin-3-yl]phenol]
Second: Cc1cc(C)c(-c2ccc(N3CCOCC34CCCN(C)C4)nn2)c(O)c1 (stereo not shown) [Example 449, 3,5-dimethyl-2-[6-(8-methyl-4-oxa-1,8-diazaspiro[5.5]undecan-1-yl)pyridazin-3-yl]phenol]
The IC50 of the first is 4.1-fold lower: 1020 nM for the first, 4190 nM for the second.

Going from `Cc1cc(C)c(-c2ccc(N3CCC4(CN(C)CCO4)C3)nn2)c(O)c1` (stereo not shown) [Example 440, 3,5-dimethyl-2-[6-(9-methyl-6-oxa-2,9-diazaspiro[4.5]decan-2-yl)pyridazin-3-yl]phenol] to `Cc1cc(C)c(-c2ccc(N3CC[C@]4(CN(C)CCO4)C3)nn2)c(O)c1` [Example 445, 3,5-dimethyl-2-[6-[(5S)-9-methyl-6-oxa-2,9-diazaspiro[4.5]decan-2-yl]pyridazin-3-yl]phenol], the IC50 falls from 3280 nM to 1900 nM (1.7-fold).

`Cc1cc(C)c(-c2ccc(N3CCCC4(COCCN4C)C3)nn2)c(O)c1` (stereo not shown) [Example 441, 3,5-dimethyl-2-[6-(1-methyl-4-oxa-1,8-diazaspiro[5.5]undecan-8-yl)pyridazin-3-yl]phenol] and `Cc1cc(C)c(-c2ccc(N3CCC4(COCCN4C)C3)nn2)c(O)c1` (stereo not shown) [Example 444, 3,5-dimethyl-2-[6-(6-methyl-9-oxa-2,6-diazaspiro[4.5]decan-2-yl)pyridazin-3-yl]phenol] are within 1.5-fold of each other in IC50: 4670 nM for the first, 4060 nM for the second.

Going from `CC(=O)N1CC[C@H]2OCCN(c3cc(C(F)F)c(-c4ccc(Cl)cc4O)nn3)[C@H]2C1` [Example 442, 1-[(4aS,8aR)-4-[6-(4-chloro-2-hydroxy-phenyl)-5-(difluoromethyl)pyridazin-3-yl]-3,4a,5,7,8,8a-hexahydro-2H-pyrido[4,3-b][1,4]oxazin-6-yl]ethanone] to `CCN1CC[C@H]2OCCN(c3cc(C(F)F)c(-c4ccc(Cl)cc4O)nn3)[C@H]2C1` [Example 456, 2-[6-[(4aS,8aR)-6-ethyl-3,4a,5,7,8,8a-hexahydro-2H-pyrido[4,3-b][1,4]oxazin-4-yl]-4-(difluoromethyl)pyridazin-3-yl]-5-chloro-phenol], the IC50 falls from 195 nM to 2 nM (98-fold). The second is the more potent here.

Going from `Cc1cc(C)c(-c2ccc(N3CC[C@@]4(CN(C)CCO4)C3)nn2)c(O)c1` [Example 446, 3,5-dimethyl-2-[6-[(5R)-9-methyl-6-oxa-2,9-diazaspiro[4.5]decan-2-yl]pyridazin-3-yl]phenol] to `Cc1cc(C)c(-c2ccc(N3CC[C@]4(COCCN4C)C3)nn2)c(O)c1` [Example 450, 3,5-dimethyl-2-[6-[(5R)-6-methyl-9-oxa-2,6-diazaspiro[4.5]decan-2-yl]pyridazin-3-yl]phenol], the IC50 rises from 815 nM to 2040 nM (2.5-fold). The first is the more potent here.

Compared with `Cc1cc(C)c(-c2ccc(N3CC[C@@]4(COCCN4C)C3)nn2)c(O)c1` [Example 451, 3,5-dimethyl-2-[6-[(5S)-6-methyl-9-oxa-2,6-diazaspiro[4.5]decan-2-yl]pyridazin-3-yl]phenol], `Cc1cc(C)c(-c2ccc(N3CCOCC34CN(C)C4)nn2)c(O)c1` [Example 455, 3,5-dimethyl-2-[6-(2-methyl-8-oxa-2,5-diazaspiro[3.5]nonan-5-yl)pyridazin-3-yl]phenol] is 4.3-fold higher in IC50: 1650 nM for the first, 7150 nM for the second.

First: CC(=O)N1CC[C@H]2CCN(c3cc(C)c(-c4ccc(C)cc4O)nn3)[C@H]2C1 [Example 457, 1-[(3aR,7aR)-1-[6-(2-hydroxy-4-methyl-phenyl)-5-methyl-pyridazin-3-yl]-3,3a,4,5,7,7a-hexahydro-2H-pyrrolo[2,3-c]pyridin-6-yl]ethenone]
Second: CC(=O)N1CC[C@H]2CCN(c3cc(C)c(-c4ccc(C(F)(F)F)cc4O)nn3)[C@H]2C1 [Example 514, 1-[(3aR,7aR)-1-[6-[2-hydroxy-4-(trifluoromethyl)phenyl]-5-methyl-pyridazin-3-yl]-3,3a,4,5,7,7a-hexahydro-2H-pyrrolo[2,3-c]pyridin-6-yl]ethanone]
The IC50 of the first is 2.2-fold higher: 432 nM for the first, 196 nM for the second. The second is the more potent here.

First: CC(=O)N1CCC[C@@H]2[C@H]1CCCN2c1ccc(-c2c(C)cc(C(F)(F)F)cc2O)nn1 [Example 462, 1-[(4aR,8aR)-5-[6-[2-hydroxy-6-methyl-4-(trifluoromethyl)phenyl]pyridazin-3-yl]-2,3,4,4a,6,7,8,8a-octahydro-1,5-naphthyridin-1-yl]ethanone]
Second: CC(=O)N1CCC[C@H]2[C@@H]1CCCN2c1ccc(-c2c(C)cc(C(F)(F)F)cc2O)nn1 [Example 463, 1-[(4aS,8aS)-5-[6-[2-hydroxy-6-methyl-4-(trifluoromethyl)phenyl]pyridazin-3-yl]-2,3,4,4a,6,7,8,8a-octahydro-1,5-naphthyridin-1-yl]ethanone]
The IC50 of the first is 15-fold lower: 251 nM for the first, 3780 nM for the second. The first is the more potent here.

First: CCc1cc(N2CCO[C@@H]3CCN(C)C[C@@H]32)nnc1-c1ccc(C)cc1O [Example 470, 2-[6-[(4aS,8aR)-6-methyl-3,4a,5,7,8,8a-hexahydro-2H-pyrido[4,3-b][1,4]oxazin-4-yl]-4-ethyl-pyridazin-3-yl]-5-methyl-phenol]
Second: Cc1cc(N2CCO[C@@H]3CCN(C)C[C@@H]32)nnc1-c1ccc(F)cc1O [Example 480, 2-[6-[(4aS,8aR)-6-methyl-3,4a,5,7,8,8a-hexahydro-2H-pyrido[4,3-b][1,4]oxazin-4-yl]-4-methyl-pyridazin-3-yl]-5-fluoro-phenol]
The IC50 of the first is 16-fold lower: 0.38 nM for the first, 6 nM for the second.

`Cc1cc(N2CCO[C@@H]3CCN(C)C[C@@H]32)nnc1-c1ccc2c(c1O)CCC2` [Example 471, 5-[6-[(4aS,8aR)-6-methyl-3,4a,5,7,8,8a-hexahydro-2H-pyrido[4,3-b][1,4]oxazin-4-yl]-4-methyl-pyridazin-3-yl]indan-4-ol] and `Cc1ccc(-c2nnc(N3CCO[C@@H]4CCN(C(C)C)C[C@@H]43)cc2C)c(O)c1` [Example 472, 2-[6-[(4aS,8aR)-6-isopropyl-3,4a,5,7,8,8a-hexahydro-2H-pyrido[4,3-b][1,4]oxazin-4-yl]-4-methyl-pyridazin-3-yl]-5-methyl-phenol] are the same in IC50: 1 nM for the first, 1 nM for the second.

First: C#Cc1cc(C)c(-c2ccc(N3CCO[C@H](CO)C3)nn2)c(O)c1 [Example 508, 5-ethynyl-2-[6-[(2S)-2-(hydroxymethyl)morpholin-4-yl]pyridazin-3-yl]-3-methyl-phenol]
Second: Cc1cc(O)c(-c2ccc(N3CCO[C@H](CO)C3)nn2)c(C(F)(F)F)c1 [Example 509, 2-[6-[(2S)-2-(hydroxymethyl)morpholin-4-yl]pyridazin-3-yl]-5-methyl-3-(trifluoromethyl)phenol]
The IC50 of the first is 2.5-fold higher: 40 nM for the first, 16 nM for the second.
